Data published in patent US20070155730A1, “Benzodiazepine And Benzopiperazine Analog Inhibitors Of Histone Deacetylase” (METHYLGENE, INC., priority 2005, published 2007).

These compounds were tested against histone deacetylase (HDAC) (assay: Inhibition of Histone Deacetylase Enzymatic Activity). Conditions: substrate Boc-Lys(Ac)-AMC, Fluor-de-Lys developer, 37° C., 20 min; against one or more of HDAC-1 to HDAC-11, SirT1 to SirT7 (isoform not given); read-out: HDAC Inhibitory Activity (IC50).
Type: biochemical
Procedure: The following protocol is used to assay the compounds of the invention. In the assay, the buffer used is 25 mM HEPES, pH 8.0, 137 mM NaCl, 2.7 mM KCl, 1 mM MgCl2 and the substrate is Boc-Lys(Ac)-AMC in a 50 mM stock solution in DMSO. The enzyme stock solution is 4.08 μg/mL in buffer.
The compounds are pre-incubated (2 μl in DMSO diluted to 13 μl in buffer for transfer to assay plate) with enzyme (20 μl of 4.08 μg/mL) for 10 min at room temperature (35 μl pre-incubation volume). The mixture is pre-incubated for 5 min at room temperature. The reaction is started by bringing the temperature to 37° C. and adding 16 μl substrate. Total reaction volume is 50 μl. […] A plate is incubated in the dark for 10 min at room temperature before reading (λEX=360 nm, λEm=470 nm, Cutoff filter at 435 nm).
In the table, “A” indicates inhibitory activity at a concentration of <0.05 μM; “B” indicates inhibitory activity at a concentration >0.05 μM but <0.5 μM, “C” indicates inhibitory activity at >0.5 μM but <2 μM and “D” indicates inhibitory activity at a concentration of >2 μM but <10 μM.
Work on `O=C(/C=C/c1ccc2c(c1)NC(=O)[C@@H](Cc1c[nH]c3ccccc13)N2)NO` [Compound 66f, (E)-3-((R)-2-((1H-indol-3-yl)methyl)-1,2,3,4-tetrahydro-3-oxoquinoxalin-6-yl)-N-hydroxyacrylamide] yielded an IC50 of 0.05 to 0.5 µM. `CC(C)C[C@@H]1NC(=O)c2ccccc2N(CCCCCC(=O)NO)C1=O` [Compound 68b1, 6-((S)-2,3,4,5-tetrahydro-3-isobutyl-2,5-dioxobenzo[e][1,4]diazepin-1-yl)-N-hydroxyhexanamide] gave an IC50 of 0.5 to 2 µM. In the case of `CC(C)(C)C[C@@H]1NC(=O)c2ccccc2N(CCCCCC(=O)NO)C1=O` [Compound 68b3, 6-((S)-2,3,4,5-tetrahydro-3-neopentyl-2,5-dioxobenzo[e][1,4]diazepin-1-yl)-N-hydroxyhexanamide], the IC50 is reported as 0.05 to 0.5 µM. `O=C(CCCCCN1C(=O)[C@@H](c2ccccc2)NC(=O)c2ccccc21)NO` [Compound 68b4, 6-((R)-2,3,4,5-tetrahydro-2,5-dioxo-3-phenylbenzo[e][1,4]diazepin-1-yl)-N-hydroxyhexanamide] gave an IC50 of 0.05 to 0.5 µM. `O=C(CCCCCN1C(=O)[C@H](Cc2c[nH]c3ccccc23)NC(=O)c2ccccc21)NO` [Compound 68b7, 6-((S)-3-((1H-Indol-3-yl)methyl)-2,3,4,5-tetrahydro-2,5-dioxobenzo[e][1,4]diazepin-1-yl)-N hydroxyhexanamide] gave an IC50 of 2 to 10 µM. Compound `O=C(CCCCCN1C(=O)[C@@H](Cc2c[nH]c3ccccc23)NC(=O)c2ccccc21)NO` [Compound 68b8, 6-((R)-3-((1H-Hz, indol-3-yl)methyl)-2,3,4,5-tetrahydro-2,5-dioxobenzo[e][1,4]diazepin-1-yl)-N-hydroxyhexanamide] has an IC50 of 0.05 to 0.5 µM. In the case of `O=C(CCCCCN1C(=O)[C@@H](Cc2ccncc2)NC(=O)c2ccccc21)NO` [Compound 68b9, 6-((R)-2,3,4,5-Tetrahydro-2,5-dioxo-3-((pyridin-4-yl)methyl)benzo [e][1,4]diazepin-1-yl)-N-hydroxyhexanamide], the IC50 is reported as 0.5 to 2 µM. In the case of `O=C(CCCCCN1C(=O)[C@H](c2ccccc2)NC(=O)c2ccccc21)NO` [Compound 68b11, 6-((S)-2,3,4,5-tetrahydro-2,5-dioxo-3-phenylbenzo[e][1,4]diazepin-1-yl)-N-hydro-xyhexanamide], the IC50 is reported as 0.05 to 0.5 µM. With `CC(C)C[C@H]1NC(=O)c2ccccc2N(CCCCCC(=O)NO)C1=O` [Compound 68b12, 6-((R)-2,3,4,5-tetrahydro-3-isobutyl-2,5-dioxobenzo[e][1,4]diazepin-1-yl)-N-amide] the IC50 was 0.05 to 0.5 µM. Work on `O=C(CCCCCN1C(=O)C2(CCCC2)NC(=O)c2ccccc21)NO` [Compound 68b16, 6-(3,3-Spirocyclopentyl-2,5-dioxo-2,3,4,5, tetrahydrobenzo [e][1,4]diazepin-1-yl)-N-hydroxyhexanamide] yielded an IC50 of 2 to 10 µM. `CC(C)(C)C[C@H]1NC(=O)c2ccccc2N(CCCCCC(=O)NO)C1=O` [Compound 68b18, 6-((R)-2,3,4,5-Tetrahydro-3-neopentyl-2,5-dioxobenzo[e][1,4]diazepin-1-yl)-N-hydroxyhexanamide] gave an IC50 of 0.05 to 0.5 µM. Compound `O=C(CCCCCN1C(=O)[C@H](C2CCCCC2)NC(=O)c2ccccc21)NO` [Compound 68b19, 6-((S)-3-Cyclohexyl-2,3,4,5-tetrahydro-2,5-dioxobenzo[e][1,4]diazepin-1-yl)-N-hydroxyhexanamide] has an IC50 of 0.5 to 2 µM. Work on `O=C(CCCCCN1C(=O)[C@H](CC2CCCCC2)NC(=O)c2ccccc21)NO` [Compound 68b20, 6-((S)-3-(Cyclohexylmethyl)-2,3,4,5-tetrahydro-2,5-dioxobenzo[e][1,4]diazepin-1-yl)-N-hydroxyhexanamide] yielded an IC50 of 0.5 to 2 µM. `O=C(CCCCCN1C(=O)[C@@H](CC2CCCCC2)NC(=O)c2ccccc21)NO` [Compound 68b21, 6-((R)-3-(cyclohexylmethyl)-2,3,4,5-tetrahydro-2,5-dioxobenzo[e][1,4]diazepin-1-yl)-N-hydroxyhexanamide] gave an IC50 of 0.05 to 0.5 µM. For `C[C@@H]1NC(=O)c2ccccc2N(CCCCCC(=O)NO)C1=O` [Compound 68b22, 6-((S)-2,3,4,5-Tetrahydro-3-methyl-2,5-dioxobenzo[e][1,4]diazepin-1-yl)-N-hydroxyhexanamide], the IC50 was 0.5 to 2 µM. For `C[C@H]1NC(=O)c2ccccc2N(CCCCCC(=O)NO)C1=O` [Compound 68b23, 6-((R)-2,3,4,5-Tetrahydro-3-methyl-2,5-dioxobenzo[e][1,4]diazepin-1-yl)-N-hydroxyhexanamide], the IC50 was 0.05 to 0.5 µM. `O=C(CCc1ccc2c(c1)NC(=O)[C@H](Cc1c[nH]c3ccccc13)N2)NO` [Compound 69, 3-((S)-2-((1H-indol-3-yl)methyl)-1,2,3,4-tetrahydro-3-oxoquinoxalin-6-yl)-N-hydroxypropanamide] showed an IC50 of 0.5 to 2 µM. In the case of `CC(C)C[C@H]1NC(=O)c2ccccc2N(CCCCCC(=O)Nc2ccccc2N)C1=O` [Compound 71, N-(2-Aminophenyl)-6-((R)-2,3,4,5-tetrahydro-3-isobutyl-2,5-dioxobenzo[e][1,4]diazepin-1-yl)hexanamide], the IC50 is reported as 2 to 10 µM. `CC(C)C[C@H]1NC(=O)c2ccccc2N(CCCCCC(=O)Nc2cscc2N)C1=O` [Compound 72, N-(4-Aminothiophen-3-yl)-6-((R)-2,3,4,5-tetrahydro-3-isobutyl-2,5-dioxobenzo[e][1,4]diazepin-1-yl)hexanamide] showed an IC50 of 2 to 10 µM. Work on `O=C(CCCCCC1NC(=O)c2ccccc2NC1=O)NO` (stereo not shown) [Compound 74, 6-(2,3,4,5-Tetrahydro-2,5-dioxo-1H-benzo[e][1,4]diazepin-3-yl)-N-hydroxyhexanamide] yielded an IC50 of 0.05 to 0.5 µM. `O=C(CCCCCC1NC(=O)c2ccccc2N(CCc2c[nH]c3ccccc23)C1=O)NO` (stereo not shown) [Compound 79, 6-(1-(2-(1H-Indol-3-yl)ethyl)-2,3,4,5-tetrahydro-2,5-dioxo-1H-benzo[e][1,4]diazepin-3-yl)-N-hydroxyhexanamide] was tested, and the IC50 was 0.05 to 0.5 µM. For `O=C(CCCCCC1NC(=O)c2ccccc2N(Cc2ccccc2)C1=O)NO` (stereo not shown) [Compound 80, 6-(1-Benzyl-2,3,4,5-tetrahydro-2,5-dioxo-1H-benzo[e][1,4]diazepin-3-yl)-N-hydroxyhexanamide], the IC50 was 0.05 to 0.5 µM. In the case of `COc1cc(CN2C(=O)C(CCCCCC(=O)NO)NC(=O)c3ccccc32)cc(OC)c1` (stereo not shown) [Compound 81, 6-(1-(3,5-Dimethoxybenzyl)-2,3,4,5-tetrahydro-2,5-dioxo-1H-benzo[e][1,4]diazepin-3-yl)-N-hydroxyhexanamide], the IC50 is reported as 0.5 to 2 µM. For `COc1ccc(CN2C(=O)C(CCCCCC(=O)NO)NC(=O)c3ccccc32)cc1` (stereo not shown) [Compound 82, 6-(1-(4-Methoxybenzyl)-2,3,4,5-tetrahydro-2,5-dioxo-1H-benzo[e][1,4]diazepin-3-yl)-N-hydroxyhexanamide], the IC50 was 0.5 to 2 µM. Work on `O=C(CCCCCC1NC(=O)c2ccccc2N(CCc2ccccc2)C1=O)NO` (stereo not shown) [Compound 83, 6-(2,3,4,5-tetrahydro-2,5-dioxo-1-phenethyl-1H-benzo[e][1 ,4]diazepin-3-yl)-N-hydroxyhexanamide] yielded an IC50 of 0.5 to 2 µM. `O=C(CCCCCC1NC(=O)c2cc(Oc3ccccc3)ccc2NC1=O)NO` (stereo not shown) [Compound 88a, 6-(2,3,4,5-Tetrahydro-2,5-dioxo-7-phenoxy-1H-benzo[e][1,4]diazepin-3-yl)-N-hydroxyhexanamide] showed an IC50 of 0.05 to 0.5 µM. For `O=C(CCCCCC1NC(=O)c2cc(NC(=O)OCc3ccccc3)ccc2NC1=O)NO` (stereo not shown) [Compound 92a, 6-(7-Benzyloxycarbonylamino-2,3,4,5-tetrahydro-2,5-dioxo-1H-benzo[e][1,4]diazepin-3-yl)-N-hydroxyhexanamide], the IC50 was 0.05 to 0.5 µM. Work on `O=C(CCCCC[C@@H]1NC(=O)c2cc(NC(=O)OCc3ccccc3)ccc2NC1=O)NO` [Compound 92b, (S)-Benzyl 3-(6-(hydroxyamino)-6-oxohexyl)-2,5-dioxo-2,3,4,5-tetrahydro-1H-benzo[e][1,4]diazepin-7-ylcarbamate] yielded an IC50 of 0.05 to 0.5 µM. `CC(C)[C@H]1NC(=O)c2ccc(C(=O)NO)cc2NC1=O` [Compound 97a, (R)—N-Hydroxy-3-isopropyl-2,5-dioxo-2,3,4,5-tetrahydro-1H-benzo[e][1,4]diazepine-8-carboxamide] was tested, and the IC50 was 2 to 10 µM. Work on `CC(C)[C@@H]1NC(=O)c2ccc(C(=O)NO)cc2NC1=O` [Compound 97b, (S)-N-Hydroxy-3-isopropyl-2,5-dioxo-2,3,4,5-tetrahydro-1H-benzo[e][1,4]diazepine-8-carboxamide] yielded an IC50 of 2 to 10 µM. In the case of `O=C(NO)c1ccc2c(c1)NC(=O)[C@H](Cc1c[nH]c3ccccc13)NC2=O` [Compound 97c, (S)-3-((1H-Indol-3-yl)methyl)-N-hydroxy-2,5-dioxo-2,3,4,5-tetrahydro-1H-benzo[e][1,4]diazepine-8-carboxamide], the IC50 is reported as 0.5 to 2 µM. In the case of `O=C(NO)c1ccc2c(c1)NC(=O)[C@@H](Cc1c[nH]c3ccccc13)NC2=O` [Compound 97d, (R)-3-((1H-Indol-3-yl)methyl)-N-hydroxy-2,5-dioxo-2,3,4,5-tetrahydro-1H-benzo[e][1,4]diazepine-8-carboxamide], the IC50 is reported as 0.5 to 2 µM. `CC(C)C[C@H]1NC(=O)c2ccc(C(=O)NO)cc2NC1=O` [Compound 97f, (R)-N-Hydroxy-3-isobutyl-2,5-dioxo-2,3,4,5-tetrahydro-1H-benzo[e][1,4]diazepine-8-carboxamide] showed an IC50 of 2 to 10 µM. For `O=C(NO)c1ccc2c(c1)NC(=O)[C@@H](CC1CCCCC1)NC2=O` [Compound 97g, (R)-3-(Cyclohexylmethyl)-N-hydroxy-2,5-dioxo-2,3,4,5-tetrahydro-1H-benzo[e][1,4]diazepine-8-carboxamide], the IC50 was 2 to 10 µM.
